Consider one compound from patent US20250127835A1, “COMPOSITION BASED ON PLANT EXTRACTS AND USE THEREOF FOR THE PREVENTION AND/OR TREATMENT OF CARBOHYDRATE AND LIPID DYSMETABOLISM” (ESSERRE PHARMA SRL, priority 2021, published 2025).

Structures can show the parent of a compound that is named as a salt.

Experiment [1] deals with streptozocin-induced diabetic rats. Particulars: 6 mg/kg for 5 weeks; cited from earlier work.
The next experiment relates to hyperglycaemic subjects. To be noted: 300 mg daily dose; cited from earlier work.
Experiment [2] relates to adult individuals with moderate hypercholesterolaemia. Kind of experiment: 6-arm, double-blind, placebo-controlled pilot clinical study, 12 weeks. The format is in vivo, humans. The method, then: All the enrolled subjects were subjected, 14 days prior to enrolment (T-14), to a pre-enrolment visit with blood tests to assess meeting the inclusion criteria. The individuals who at TO met the inclusion criteria underwent a randomization visit at which the respective treatment was assigned and blood tests were performed in relation to the reference parameters. The study lasted 12 weeks. At the end of treatment (T12), the subjects were subjected to an end-of-study visit and blood tests. The parameters investigated in the study are: Body mass index, systolic and diastolic blood pressure, blood glucose, total cholesterol, LDL, HDL, triglycerides, GOT, GPT, gGT, creatinine phosphokinase (CPK). […] The treatment called “placebo” consists of a tablet equal in shape, weight, colour size and flavour to the active tablet but containing “inert” material for the desired effect and consists of: microcrystalline cellulose, magnesium stearate, silicon dioxide, calcium phosphate, chlorophylline dye, yellow iron oxide dye, yellow coating agents. The treatments related to groups C, D, E and F consist of one tablet equal in appearance to the tablets of groups A and B but consisting of the single active ingredient, as described above in addition to excipients. The treatment tablets were packaged in anonymous white bottles, showing only the batch number consisting of an alphanumeric code and the expiration date. Neither the investigator nor the study subjects knew the contents of the bottles. The bottles of each treatment were placed in cardboard boxes containing a letter in a sealed envelope with reference to the batch number and content, to be opened only in case of need, as in cases of serious adverse events. After randomization, each study participant was given the vial with 30 tablets for the specific treatment of the group to which they belonged. All the subjects were instructed to take one tablet in the evening before bed for 12 weeks.

The test system of experiment [3] is 86 subjects of which 60 with type II diabetes mellitus. To be noted: 100 mg per day, after 3 months of supplementation; cited from earlier work.
The mark [4] stands for this setting: after 12 weeks, printed as reduction of x% or as −x%.

Turning to `Cc1ncc(C[n+]2csc(CCO)c2C)c(N)n1` [THIAMINE, thiamine hydrochloride], in experiment [1], the HDL-c result is recorded as “increases”, the insulin entry is given as “increases”, the malonyldialdehyde entry is “reduces” and the serum glucose result is “reduces”. Also, in experiment [1], the total cholesterol entry is “reduces” and the triglycerides result is recorded as “reduces”. In the experiment on hyperglycaemic subjects, the diastolic pressure result was “reduces” and the systolic pressure result is reported as “reduces”. Besides, the “reductions in the parameters of interest” value in experiment [2] (after 12 weeks) is “did not show statistically significant reductions”. In addition, in experiment [2] (after 12 weeks of treatment), the “increase of HDL cholesterol (HDL-C)” value is recorded as “no changes” and the “reduction of LDL cholesterol (LDL-C)” value was “did not achieve a percentage reduction”. For the same compound, in experiment [2] (setting [4]), the “reduction of fasting plasma glucose (FPG)” value was “not detected” and the “reduction of triglycerides (TG)” value is −1%. Moreover, in experiment [3], the total cholesterol entry is “significantly reduces”.
